Active and inactive are the calls of the source. No cut-off for these calls is given here.
Legend:
Format in all cases: functional
[1] = system: UACC-257; assay: Growth inhibition of human UACC257 cells by sulforhodamine B assay
[2] = system: Hs-578T; assay: Growth inhibition of human Hs 578T cells assessed as growth inhibition at 10 uM by sulforhodamine B assay
[3] = system: RXF 393; assay: Growth inhibition of human RXF393 cells by sulforhodamine B assay
[4] = system: SNB-19; assay: Growth inhibition of human SNB19 cells assessed as cell growth at 10^-8 M by sulforhodamine B assay; conditions: read-out: Activity
[5] = Growth inhibition of human Hs 578T cells assessed as cell growth at 10^-7 M by sulforhodamine B assay; conditions: read-out: Activity
[6] = system: Malme-3M; assay: Growth inhibition of human MALME-3M cells assessed as cell growth at 10^-4 M by sulforhodamine B assay; conditions: read-out: Activity
[7] = system: OVCAR-3; assay: Growth inhibition of human OVCAR3 cells assessed as cell growth at 10^-6 M by sulforhodamine B assay; conditions: read-out: Activity
[8] = system: TK-10; assay: Growth inhibition of human TK10 cells by sulforhodamine B assay
[9] = system: Malme-3M; assay: Growth inhibition of human MALME-3M cells assessed as cell growth at 10^-6 M by sulforhodamine B assay; conditions: read-out: Activity
[10] = system: OVCAR-4; assay: Growth inhibition of human OVCAR4 cells by sulforhodamine B assay
[11] = system: MDA-MB-435; assay: Growth inhibition of human MDA-MB-435 cells assessed as cell growth at 10^-4 M by sulforhodamine B assay; conditions: read-out: Activity
[12] = system: SR; assay: Growth inhibition of human SR cells by sulforhodamine B assay
[13] = system: HL-60(TB); assay: Growth inhibition of human HL-60(TB) cells assessed as cell growth at 10^-8 M by sulforhodamine B assay; conditions: read-out: Activity
[14] = system: MCF7; assay: Growth inhibition of human MCF7 cells assessed as cell growth at 10^-7 M by sulforhodamine B assay; conditions: read-out: Activity
[15] = system: TK-10; assay: Growth inhibition of human TK10 cells assessed as cell growth at 10^-7 M by sulforhodamine B assay; conditions: read-out: Activity
[16] = system: M14; assay: Growth inhibition of human M14 cells assessed as cell growth at 10^-6 M by sulforhodamine B assay; conditions: read-out: Activity
[17] = system: BT-549; assay: Growth inhibition of human BT549 cells assessed as cell growth at 10^-6 M by sulforhodamine B assay; conditions: read-out: Activity
[18] = system: T47D; assay: Growth inhibition of human T47D cells assessed as cell growth at 10^-7 M by sulforhodamine B assay; conditions: read-out: Activity
[19] = system: ACHN; assay: Growth inhibition of human ACHN cells by sulforhodamine B assay
[20] = system: SF-268; assay: Growth inhibition of human SF268 cells assessed as cell growth at 10^-7 M by sulforhodamine B assay; conditions: read-out: Activity
[21] = system: SF-268; assay: Growth inhibition of human SF268 cells by sulforhodamine B assay
[22] = system: SK-MEL-5; assay: Growth inhibition of human SK-MEL-5 cells assessed as cell growth at 10^-8 M by sulforhodamine B assay; conditions: read-out: Activity
[23] = system: MOLT-4; assay: Growth inhibition of human MOLT4 cells by sulforhodamine B assay
[24] = system: HOP-92; assay: Growth inhibition of human HOP92 cells assessed as cell growth at 10^-6 M by sulforhodamine B assay; conditions: read-out: Activity
[25] = system: NCI-H460; assay: Growth inhibition of human NCI-H460 cells assessed as cell growth at 10^-4 M by sulforhodamine B assay; conditions: read-out: Activity
[26] = system: CAKI-1; assay: Growth inhibition of human CAKI-1 cells assessed as cell growth at 10^-4 M by sulforhodamine B assay; conditions: read-out: Activity
[27] = system: RPMI-8226; assay: Growth inhibition of human RPMI8226 cells assessed as cell growth at 10^-4 M by sulforhodamine B assay; conditions: read-out: Activity
[28] = system: SF-539; assay: Growth inhibition of human SF539 cells by sulforhodamine B assay
[29] = system: LOX IMVI; assay: Growth inhibition of human LOXIMVI cells by sulforhodamine B assay
[30] = system: IGROV-1; assay: Growth inhibition of human IGROV1 cells assessed as cell growth at 10^-6 M by sulforhodamine B assay; conditions: read-out: Activity
[31] = Growth inhibition of human HCC2998 cells assessed as cell growth at 10^-7 M by sulforhodamine B assay; conditions: HCC 2998, read-out: Activity
[32] = read-out: LC50 (the source's name)
[33] = read-out: pLC50 (the source's name) (converted)

C/C=C(/C)C(=O)O[C@@H]1CC(C)(C)C[C@H]2C3=CC[C@@H]4[C@@]5(C)CC[C@H](O)C(C)(C)[C@@H]5CC[C@@]4(C)[C@]3(C)CC[C@@]12C(=O)O [Reduced Lantadene A]
GI50 ([1]; read-out: GI50): 2.13 µM
CC50 [1, 32]: 19.3 µM
TGI ([1]; read-out: TGI): 4.93 µM
GI50 ([1]; read-out: pGI50 (converted)): 2.14 µM
CC50 [1, 33]: 19.5 µM
TGI ([1]; read-out: pTGI (converted)): 4.9 µM
growth inhibition (GI) [2]: Active
GI50 ([3]; read-out: GI50): 1.77 µM
CC50 [3, 32]: 8.29 µM
TGI ([3]; read-out: TGI): 3.83 µM
GI50 ([3]; read-out: pGI50 (converted)): 1.78 µM
CC50 [3, 33]: 8.32 µM
TGI ([3]; read-out: pTGI (converted)): 3.8 µM
growth at 0.01 µM [4]: 90%
growth at 0.1 µM [5]: 91%
growth at 100 µM [6]: -62%
growth at 1 µM [7]: 104%
GI50 ([8]; read-out: GI50): 2.25 µM
CC50 [8, 32]: 9.55 µM
TGI ([8]; read-out: TGI): 4.63 µM
GI50 ([8]; read-out: pGI50 (converted)): 2.24 µM
CC50 [8, 33]: 9.55 µM
TGI ([8]; read-out: pTGI (converted)): 4.68 µM
growth at 1 µM [9]: 92%
GI50 ([10]; read-out: GI50): 1.77 µM
TGI ([10]; read-out: TGI): 3.74 µM
GI50 ([10]; read-out: pGI50 (converted)): 1.78 µM
TGI ([10]; read-out: pTGI (converted)): 3.72 µM
growth at 100 µM [11]: -47%
GI50 ([12]; read-out: GI50): 2.14 µM
CC50 [12, 32]: > 100 µM
TGI ([12]; read-out: TGI): 5.63 µM
GI50 ([12]; read-out: pGI50 (converted)): 2.14 µM
CC50 [12, 33]: > 100 µM
TGI ([12]; read-out: pTGI (converted)): 5.62 µM
growth at 0.01 µM [13]: 106%
growth at 0.1 µM [14]: 96%
growth at 0.1 µM [15]: 108%
growth at 1 µM [16]: 89%
growth at 1 µM [17]: 95%
growth at 0.1 µM [18]: 104%
GI50 ([19]; read-out: GI50): 1.82 µM
CC50 [19, 32]: 9.07 µM
TGI ([19]; read-out: TGI): 4.06 µM
GI50 ([19]; read-out: pGI50 (converted)): 1.82 µM
CC50 [19, 33]: 9.12 µM
TGI ([19]; read-out: pTGI (converted)): 4.07 µM
growth at 0.1 µM [20]: 106%
GI50 ([21]; read-out: GI50): 2.16 µM
TGI ([21]; read-out: TGI): 4.42 µM
GI50 ([21]; read-out: pGI50 (converted)): 2.14 µM
TGI ([21]; read-out: pTGI (converted)): 4.47 µM
growth at 0.01 µM [22]: 95%
GI50 ([23]; read-out: GI50): 2.05 µM
CC50 [23, 32]: > 100 µM
TGI ([23]; read-out: TGI): 5.14 µM
GI50 ([23]; read-out: pGI50 (converted)): 2.04 µM
CC50 [23, 33]: > 100 µM
TGI ([23]; read-out: pTGI (converted)): 5.13 µM
growth at 1 µM [24]: 73%
growth at 100 µM [25]: -37%
growth at 100 µM [26]: -65%
growth at 100 µM [27]: -15%
GI50 ([28]; read-out: GI50): 3.37 µM
CC50 [28, 32]: 56.3 µM
TGI ([28]; read-out: TGI): 11.4 µM
GI50 ([28]; read-out: pGI50 (converted)): 3.39 µM
CC50 [28, 33]: 56.2 µM
TGI ([28]; read-out: pTGI (converted)): 11.5 µM
GI50 ([29]; read-out: GI50): 3.39 µM
CC50 [29, 32]: 66.8 µM
TGI ([29]; read-out: TGI): 13 µM
GI50 ([29]; read-out: pGI50 (converted)): 3.39 µM
CC50 [29, 33]: 66.1 µM
TGI ([29]; read-out: pTGI (converted)): 12.9 µM
growth at 1 µM [30]: 111%
growth at 0.1 µM [31]: 104%

CC(C)=CC(=O)O[C@@H]1CC(C)(C)C[C@H]2C3=CC[C@@H]4[C@@]5(C)CC[C@H](O)C(C)(C)[C@@H]5CC[C@@]4(C)[C@]3(C)CC[C@@]12C(=O)O [Reduced Lantadene B]
GI50 ([1]; read-out: GI50): 14.5 µM
CC50 [1, 32]: > 100 µM
TGI ([1]; read-out: TGI): 45.6 µM
GI50 ([1]; read-out: pGI50 (converted)): 14.5 µM
CC50 [1, 33]: > 100 µM
TGI ([1]; read-out: pTGI (converted)): 45.7 µM
GI50 ([3]; read-out: GI50): 2.58 µM
CC50 [3, 32]: 35.6 µM
TGI ([3]; read-out: TGI): 7.69 µM
GI50 ([3]; read-out: pGI50 (converted)): 2.57 µM
CC50 [3, 33]: 35.5 µM
TGI ([3]; read-out: pTGI (converted)): 7.76 µM
growth at 0.01 µM [4]: 93%
growth at 0.1 µM [5]: 97%
growth at 100 µM [6]: -46%
growth at 1 µM [7]: 86%
GI50 ([8]; read-out: GI50): 10.7 µM
CC50 [8, 32]: 71.6 µM
TGI ([8]; read-out: TGI): 27.7 µM
GI50 ([8]; read-out: pGI50 (converted)): 10.7 µM
CC50 [8, 33]: 70.8 µM
TGI ([8]; read-out: pTGI (converted)): 27.5 µM
growth at 1 µM [9]: 104%
GI50 ([10]; read-out: GI50): 8.59 µM
CC50 [10, 32]: > 100 µM
TGI ([10]; read-out: TGI): 35.6 µM
GI50 ([10]; read-out: pGI50 (converted)): 8.51 µM
CC50 [10, 33]: > 100 µM
TGI ([10]; read-out: pTGI (converted)): 35.5 µM
growth at 100 µM [11]: -26%
GI50 ([12]; read-out: GI50): 5.04 µM
CC50 [12, 32]: > 100 µM
TGI ([12]; read-out: TGI): 35.4 µM
GI50 ([12]; read-out: pGI50 (converted)): 5.01 µM
CC50 [12, 33]: > 100 µM
TGI ([12]; read-out: pTGI (converted)): 35.5 µM
growth at 0.01 µM [13]: 101%
growth at 0.1 µM [14]: 98%
growth at 0.1 µM [15]: 93%
growth at 1 µM [16]: 89%
growth at 1 µM [17]: 93%
growth at 0.1 µM [18]: 95%
GI50 ([19]; read-out: GI50): 2.93 µM
CC50 [19, 32]: 58.5 µM
TGI ([19]; read-out: TGI): 20.4 µM
GI50 ([19]; read-out: pGI50 (converted)): 2.95 µM
CC50 [19, 33]: 58.9 µM
TGI ([19]; read-out: pTGI (converted)): 20.4 µM
growth at 0.1 µM [20]: 93%
GI50 ([21]; read-out: GI50): 5.87 µM
LC50 ([21]; read-out: LC50): 97.2 µM
TGI ([21]; read-out: TGI): 26.1 µM
GI50 ([21]; read-out: pGI50 (converted)): 5.89 µM
LC50 ([21]; read-out: pLC50 (converted)): 97.7 µM
TGI ([21]; read-out: pTGI (converted)): 26.3 µM
growth at 0.01 µM [22]: 93%
GI50 ([23]; read-out: GI50): 3.02 µM
CC50 [23, 32]: > 100 µM
TGI ([23]; read-out: TGI): 20.6 µM
GI50 ([23]; read-out: pGI50 (converted)): 3.02 µM
CC50 [23, 33]: > 100 µM
TGI ([23]; read-out: pTGI (converted)): 20.4 µM
growth at 1 µM [24]: 70%
growth at 100 µM [25]: -4%
growth at 100 µM [26]: -9%
growth at 100 µM [27]: -19%
GI50 ([28]; read-out: GI50): 8.94 µM
CC50 [28, 32]: > 100 µM
TGI ([28]; read-out: TGI): 36.2 µM
GI50 ([28]; read-out: pGI50 (converted)): 8.91 µM
CC50 [28, 33]: > 100 µM
TGI ([28]; read-out: pTGI (converted)): 36.3 µM
GI50 ([29]; read-out: GI50): 9.09 µM
CC50 [29, 32]: > 100 µM
TGI ([29]; read-out: TGI): 38.2 µM
GI50 ([29]; read-out: pGI50 (converted)): 9.12 µM
CC50 [29, 33]: > 100 µM
TGI ([29]; read-out: pTGI (converted)): 38 µM
growth at 1 µM [30]: 101%
growth at 0.1 µM [31]: 99%

From ChEMBL document CHEMBL2413072, “Synthesis and in vitro anticancer studies of novel C-2 arylidene congeners of lantadenes” (2013)
